Usually logP stands for a log measure of how a compound divides between an organic and an aqueous phase. A high value points to higher lipophilicity. In general, logD refers to lipophilicity at a set pH, counting ionised and neutral species. Higher therefore signals a more lipophilic compound.

logP and logD data for 33 compounds are collected here from the SangsterLogP compilation.

Test in the first data set: not given
Settings: not given
Consider `CC(CC(=O)c1ccc(-c2ccccc2)cc1)C(=O)O` (stereo not drawn), for which the logP was found to be 3.13.

The nature of the next data set: method code SF-AS, from DOI: 10.1016/s0021-9673(01)95502-5. The conditions noted are these: pH 3.4.
Compound `COc1ccc(C(=O)CCCC(=O)O)cc1Cl` yielded a logD of 2.17.
Compound `CCC(O)(C(=O)O)c1ccc(CC(C)C)cc1` (stereo not drawn) showed a logD of 3.37.
As to `COc1ccc(C(=O)CC(C)CC(=O)O)cc1Cl` (stereo not drawn), the pH-dependent lipophilicity (logD) was 2.6.
The compound `CC(CC(=O)O)CC(=O)c1ccc(-c2ccccc2)cc1` (stereo not drawn) came in with a log distribution coefficient (logD) of 3.82.
Still for that read-out and setting: under `COc1ccc(C(=O)CCC(=O)O)cc1` stands 1.38; under `O=C(O)CCCC(=O)c1ccc(-c2ccccc2)cc1`, 3.35; under `O=C(O)CCC(=O)c1ccccc1`, 1.3.
For `CC(CC(=O)c1ccccc1)C(=O)O` (stereo not drawn), the log distribution coefficient (logD) was 1.62.

The data set is the same for the next values; noted with them: pH 3.5.
`CC(CC(=O)c1ccc(C2CCCCC2)cc1)C(=O)O` (stereo not drawn) returned a logD of 4.08.
Compound `CC(C)Cc1ccc(C(=O)CCCC(=O)O)cc1` returned a logD of 3.39.
With `COc1ccc(C(C)(O)C(=O)O)cc1` (stereo not drawn), the logD came to 0.81.
Regarding `COc1ccc(C(=O)CCC(=O)O)cc1Cl`, the logD worked out at 1.98.
Take `CCc1ccc(CC(=O)O)cc1`: the logD came out at 2.43.
Compound `CC(C)(C)c1ccc(CC(=O)O)cc1` registered a log distribution coefficient (logD) of 3.13.
In turn, `O=C(O)CCCC(=O)c1ccc(C2CCCCC2)cc1` registered a log distribution coefficient (logD) of 3.95.
Same read-out and setting: under `COc1ccc(C(C)(O)C(=O)O)cc1Cl` (stereo not drawn) stands 1.26; under `CC(C)Oc1ccc(C(=O)CCC(=O)O)cc1`, 2.18.
The same measure, in the same setting: then `CC(C)Oc1ccc(C(=O)CCC(=O)O)cc1Cl`, with 2.78.
Compound `CC(C)COc1ccc(C(=O)CC(C)C(=O)O)cc1Cl` (stereo not drawn) came in with a log distribution coefficient (logD) of 3.6.
Compound `CC(C)c1ccc(CC(=O)O)cc1` displayed a logD of 2.85.
Same read-out and setting: then `O=C(O)CCC(=O)c1ccc(Br)cc1`, with 2.28.
Regarding `O=C(O)CCC(=O)c1ccc(C2CCCCC2)c(Cl)c1`, the logD turned out to be 4.36.
`O=C(O)CCC(=O)c1ccc(C2CCCCC2)cc1` showed a logD of 3.76.
As for `CCCCCCOc1ccc(C(=O)CCC(=O)O)cc1`, the pH-dependent lipophilicity (logD) came to 3.88.
On the same count and under the same terms, under `CC(CC(=O)O)CC(=O)c1ccc(C2CCCCC2)cc1` (stereo not drawn) stands 4.38; under `CCC(O)(C(=O)O)c1ccc(-c2ccccc2)cc1` (stereo not drawn), 3.37.
`CC(C)Oc1ccc(C(=O)CC(C)C(=O)O)cc1` (stereo not drawn) gave a logD of 2.5.
Same read-out and setting: under `CC(O)(C(=O)O)c1ccc(C2CCCCC2)cc1` (stereo not drawn) stands 3.26; under `CC(C)c1ccc(C(=O)CCCC(=O)O)cc1`, 2.89.
On to `CC(C)c1ccc(C(=O)CCC(=O)O)cc1`, for which the pH-dependent lipophilicity (logD) worked out at 2.7.
As for `CC(C)Cc1ccc(C(=O)CCC(=O)O)cc1`, the logD turned out to be 3.2.
On the same count and under the same terms, under `CC(CC(=O)O)CC(=O)c1ccc(OC(C)C)c(Cl)c1` (stereo not drawn) stands 3.4.
